# Test results: article PMC10747602, “Dose Response, Dosimetric, and Metabolic Evaluations of Replacement PFAS Perfluoro-(2,5,8-trimethyl-3,6,9-trioxadodecanoic) Acid (HFPO-TeA)” (Toxics, 2023)
# Key:
# [1] = Non-targeted analysis of plasma and liver (in vivo); set-up: species or system Sprague Dawley rats; details: for relative peak area abundance (RA) vs. HFPO-TeA, Plasma: 5 days, mean ± SD n=8
# Procedure: Extracts of plasma (50 µL), liver (10 mg), and hepatocyte metabolism assay media (10 µL) were analyzed by high-resolution, accurate mass non-targeted analysis (NTA) for the detection and identification of potential biotransformation products of HFPO-TeA. A mixture of ^13C-labeled PFAS compounds (MPAC-C-ES, Wellington Laboratories, Guelph, ON, Canada) were used as tracers. Samples were extracted, as detailed above (in vivo) and below (in vitro), and then analyzed in triplicate in a randomized order on a Sciex X500R QTOF. Additional information on NTA instrumental analysis and data processing parameters is presented in Supplementary Text S8 and Tables S8 and S10 [52]. […] A screening list of potential biotransformation products was generated using the U.S. EPA web application CTS: Chemical Transformation Simulator 1.0 and Biotransformer 3.0 [53, 54]. In some instances, molecular structure predictions were performed using MetFrag. […]
# tube, and then further crashed with 200 µL ACN. This was repeated twice more to generate a final combined supernatant volume of 600 µL. Supernatants were stored at -20 °C prior to analysis.
# Samples were quantitated against matrix-matched calibration curves containing a minimum of 5 points spanning the range 0.99 – 141 ng/mg liver (wet weight, ww). For the calibration standards, commercial rat liver (BioIVT) was spiked with HFPO-TeA and PFHxDA, homogenized, and extracted using the above procedure. […]
# Support ing Text S8: Non- Target ed Analysis Met hod and Data Processing Each sample batch included a mobile phase blank and solvent blank to monitor for the presence of laboratory contamination, and a system suitability sample consisting of the set of isotopically labeled PFAS tracer compounds spiked into extraction solvent to monitor instrument performance prior to sample analysis. […] A high-resolution, exact mass spectral library created in house from IDA scans of commercially available PFAS standards analyzed on the same mass spectrometer as the samples and using the same instrument parameters was used for library searches. […]
# [2] = tested on: Sprague Dawley rats; assay: Mortality in five-day oral gavage exposure; LD50 calculation (BMDS 3.3.2); details: for LD50 estimate (lower and upper 95% bounds): oral gavage, BMDS 3.3.2 multistage 3 model
# Procedure: Male and female rats (n = 4/sex, dose, and time point) were dosed by gavage (5 mL/kg bodyweight) once daily for five days with water (vehicle control) or HFPO-TeA at eight half-log dose levels ranging from 0.3 to 335.2 mg/kg/day (i.e., 0.3, 0.9, 2.3, 6.3, 17, 45.9, 124, and 335.2). The results reported here are part of a larger study, for which the main purpose was to use benchmark dose–response modeling of transcriptomic data to identify a gene set basis for the point of departure (POD).
# Clinical observations were performed prior to first administration and at termination. Moribundity and mortality were assessed twice daily on weekdays and once daily on weekends. Animals found moribund were euthanized by carbon dioxide inhalation and death was confirmed by cervical dislocation.
# The mortality incident data were analyzed using BMDS 3.3.2, with the dichotomous model selected as the model type. The Benchmark Response was set at 0.5 extra risk. LD50 estimates were based on the model with the lowest Akaike information criterion (AIC).
structure (smiles),measurement,setting,value
"O=C(O)C(F)(OC(F)(F)C(F)(OC(F)(F)C(F)(F)C(F)(F)F)C(F)(F)F)C(F)(F)F (stereo not shown) [HFPO-TA, perfluoro-(2,5-dimethyl-3,6-dioxanonanoic) acid]","relative peak area abundance (RA) vs. HFPO-TeA, Plasma",[1]; HFPO-TeA dose 6.3 mg/kg/day,0.05 ± 0.04
same,"relative peak area abundance (RA) vs. HFPO-TeA, Plasma",[1]; HFPO-TeA dose 17 mg/kg/day,1.83 ± 0.85
"O=C(O)C(F)(OC(F)(F)C(F)(OC(F)(F)C(F)(OC(F)(F)C(F)(F)C(F)(F)F)C(F)(F)F)C(F)(F)F)C(F)(F)F (stereo not shown) [HFPO-TeA, perfluoro-(2,5,8-trimethyl-3,6,9-trioxadodecanoic) acid]",LD50 estimate (lower and upper 95% bounds),[2]; females,28.23 (18.69 and 41.57) mg/kg/day
same,premature death,"[2]; male and female rats, 45.9, 124, and 335.2 mg/kg/day dose groups",Premature death occurred
same,doses at which mortality was observed,"[2]; male and female rats, oral gavage five days",> 17 mg/kg/day
same,LD50 estimate (lower and upper 95% bounds),[2]; males,37.77 (26.09 and 59.96) mg/kg/day
same,presence of predicted conjugates (non-targeted analysis),[1]; plasma or liver,No ions that suggested the presence of the three predicted HFPO-TeA conjugates were observed
